We go through eight compounds from patent EP4740942A1, “AROMATIC AMIDE DERIVATIVE AND USE THEREOF” (HUAJIAN FUTURE (CHENGDU) TECHNOLOGY CO., LTD., priority 2023, dated 2025).

As a reminder, the IC50 is the concentration that gives 50% inhibition. What is called bioavailability is the share of a dose that reaches the circulation, judged against a reference dose that is usually intravenous.

For data set [1], the system named is lung cancer cells A427. In words: 3D model proliferation inhibitory activity test against lung cancer cells A427 (CellTiter-3D-Glo). The data set is classed as cell-based. The following applies: Homo sapiens, A-427, low-adhesion 96-well U-bottom plate. As for the experimental part:
(§1) Cell proliferation activity was detected by a CellTiter-3D-Glo reagent method. A specific method was as follows: A427 cells in logarithmic growth period were digested, diluted to a suitable cell density with MEM complete medium containing 10% FBS and 1% PS, inoculated into a low-adhesion 96-well U-bottom plate, and cultured in 5% CO2; and then a series of to-be-tested compounds with concentration gradient was added, and incubated in a 5% CO2 incubator. After finishing the incubation, the cells were lysed and detected by using the CellTiter-3D-Glo reagent. Chemiluminescence values were measured by a microplate reader, and data were fitted by Graphpad Prism software, so as to calculate IC50 values of tested substances.

For data set [2], the system named is colorectal cancer cells SW480. In words: 3D model proliferation inhibitory activity test against colorectal cancer cells SW480 (CellTiter-3D-Glo). The data set is classed as cell-based. To be noted: Homo sapiens, low-adhesion 96-well U-bottom plate. As for the experimental part:
as §1, with “SW480” for “A427”, “DMEM” for “MEM”

The test system of data set [3] is colorectal cancer cells HCT116. Nature of the data set: Proliferation inhibitory activity test against colorectal cancer cells HCT116 (CellTiter-3D-Glo). Format: cell-based. The following applies: Homo sapiens, HCT-116, low-adhesion 96-well U-bottom plate. Here is the method: Cell proliferation activity was detected by a CellTiter-3D-Glo reagent method. A testing process was as follows: HCT116 cells in logarithmic growth period were digested, diluted to a suitable cell density with McCoy's 5A complete medium containing 10% FBS and 1% PS, inoculated into a low-adhesion 96-well U-bottom plate, and cultured in 5% CO2; and then a series of to-be-tested compounds with concentration gradient was added, and the system was incubated in a 5% CO2 incubator. After finishing the incubation, the cells were lysed and detected by using the CellTiter-3D-Glo reagent. Chemiluminescence values were measured by a microplate reader, and data were fitted by Graphpad Prism software, so as to calculate IC50 values of tested substances. Test results can be seen in the following table: wherein, "A" represents inhibitory activity IC50 < 20 nM, "B" represents inhibitory activity 20 nM ≤ IC50 < 50 nM, and "C" represents inhibitory activity IC50 ≥ 50 nM.

Data set [4] relates to pancreatic cancer cells MIA PaCa-2. Nature of the data set: Pharmacodynamic experiment of subcutaneous xenograft tumor model of pancreatic cancer cells MIA PaCa-2. Format: in vivo, BALB/c nude mice. The following applies: 0.2 mg/kg, QD × 15 days, oral gavage; for diets, weights and activities of the animals during the drug administration / Tumor inhibition rate: BALB/c nude mice; for Tumor inhibition rate: MIA PaCa-2 subcutaneous xenograft; for inhibitory effects on the growth of subcutaneously transplanted tumors of pancreatic cancer MIA PaCa-2 cells in the nude mice: result in words.

A short description of data set [5]: In-vivo pharmacokinetic study in SD rats. To be noted: 0.2 mg/kg. Here is the method:
Pharmacokinetic study on compound 4-1 in SD rats was conducted. 12 SD rats (half male and half female) were selected and randomly divided into 2 groups (3 rats/sex/group) according to their body weights, and the groups were recorded as a group 1 and a group 2, which were administered with 0.2 mg/kg compound 4-1 by intravenous and oral gavage route respectively. All the experimental animals were administered with a single dose on Day 0, and a drug administration moment was recorded as 0 hour. About 0.25 mL of whole blood (EDTA-K2) was respectively collected from all the experimental animals in group 1 before the drug administration, at 5 minutes, 15 minutes, 30 minutes, 1 hour, 2 hours, 4 hours, 6 hours, 8 hours and 24 hours after finishing the drug administration to prepare plasma; and about 0.25 mL of whole blood (EDTA-K2) was respectively collected from all the experimental animals in group 2 before the drug administration, at 15 minutes, 30 minutes, 1 hour, 2 hours, 4 hours, 6 hours, 8 hours and 24 hours after finishing the drug administration to prepare plasma. The compounds in the plasma samples were quantitatively determined by a LC-MS/MS method, and pharmacokinetic parameters were analyzed and calculated by non-compartmental analysis.

Data set [6] relates to colorectal cancer cells SW480. In words: Pharmacodynamic experiment of subcutaneous xenograft tumor model of colorectal cancer cells SW480. To be noted: 0.2 mg/kg, QD × 18 days, oral gavage. Format: in vivo, BALB/c nude mice. Here is the method:
Animal species and number: BALB/c nude mice, 6 mice in each group.
Experimental samples: compound 4-1 and compound Ref A-1.
Experimental groups: blank solvent control group, compound 4-1 (0.2 mg/kg, QD × 18 days) and compound Ref A-1 (0.2 mg/kg, QD × 18 days).
Establishment of animal model: SW480 tumor cells in logarithmic growth period were cultured and collected in vitro, and inoculated subcutaneously in right backs of the Balb/c Nude mice, and when tumors grew to about 180-250 mm^3, the tumor-bearing mice were randomly divided into groups. Subsequently, each group of animals were administered with drugs, and the first day of drug administration was defined as the 1st day of the experiment.
Drug administration route and frequency: oral gavage, once per day, for 18 consecutive days.
General state observation: the mice were observed once per day, and observation contents included, but were not limited to, locally administered parts, physical signs, general behaviors, mental states, death and other situations, and other abnormal manifestations of the animals.
Tumor volume calculation: V = 0.5 a × b^2, wherein a was a long diameter of tumor and b was a short diameter of tumor. Tumor growth inhibition rates TGI (%) were used to evaluate anti-tumor effects of the compounds. […]

Bounds are passed on as bounds.

Turning to `[2H]C([2H])([2H])NS(=O)(=O)Nc1nccc(Cc2cc(C(=O)NCC=C)c(Nc3ccc(I)cc3F)c(F)c2F)c1F` [Compound 4-10, N-allyl-3,4-difluoro-5-((3-fluoro-2-((N-methyl-d3-aminosulfonyl)amino)pyridin-4-yl)methyl)-2-((2-fluoro-4-iodophenyl)amino)benzamide], the concentration for half-maximal inhibition (IC50) in data set [1] was 0.89 nM; in data set [2], 1.05 nM; in data set [3], less than 20 nM.

Consider `C=CCCONC(=O)c1cc(Cc2ccnc(NS(=O)(=O)NC)c2F)c(F)c(F)c1Nc1ccc(I)cc1F` [Compound 5-2, N-(but-3-en-1-yloxy)-3,4-difluoro-5-((3-fluoro-2-((N-methylaminosulfonyl)amino)pyridin-4-yl)methyl)-2-((2-fluoro-4-iodophenyl)amino)benzamide], for which the IC50 in data set [2] was found to be 0.63 nM.

For `C=CCNC(=O)c1cc(Cc2ccnc(NS(=O)(=O)NC)c2F)c(F)c(F)c1Nc1ccc(C=C)cc1F` [Compound 4-14, N-allyl-3,4-difluoro-5-((3-fluoro-2-((N-methylaminosulfonyl)amino)pyridin-4-yl)methyl)-2-((2-fluoro-4-vinylphenyl)amino)benzamide], the half-inhibitory concentration (IC50) in data set [2] was 2.67 nM; in data set [3], less than 20 nM.

As for `C=CCONC(=O)c1cc(Cc2ccnc(NS(=O)(=O)NC)c2F)c(F)c(F)c1Nc1ccc(I)cc1F` [Compound 5-1, N-(allyloxy)-3,4-difluoro-5-((3-fluoro-2-((N-methylaminosulfonyl)amino)pyridin-4-yl)methyl)-2-((2-fluoro-4-iodophenyl)amino)benzamide], in data set [1], the IC50 was determined as 0.53 nM. For the same compound, in data set [4], the “diets, weights and activities of the animals during the drug administration” value is “normal”; the Tumor inhibition rate entry was “+++ (tumor inhibition rate > 90%)”; the “inhibitory effects on the growth of subcutaneously transplanted tumors of pancreatic cancer MIA PaCa-2 cells in the nude mice” value was “significant inhibitory effects”. Besides, 0.17 nM corresponded to half-maximal inhibition in data set [2] (IC50).

For `C=CCNC(=O)c1cc(Cc2ccnc(NS(=O)(=O)NCC)c2F)c(F)c(F)c1Nc1ccc(I)cc1F` [Compound 4-8, N-allyl-5-((2-((N-ethylaminosulfonyl)amino)-3-fluoropyridin-4-yl)methyl)-3,4-difluoro-2-((2-fluor o-4-iodophenyl)amino)benzamide], the IC50 in data set [1] was 2.88 nM; in data set [3], less than 20 nM.

Take `C=C[C@@H](C)NC(=O)c1cc(Cc2ccnc(NS(=O)(=O)NC)c2F)c(F)c(F)c1Nc1ccc(I)cc1F` [Compound 4-5, (R)-N-(but-3-en-2-yl)-3,4-difluoro-5-((3-fluoro-2-((N-methylaminosulfonyl)amino)pyridin-4-yl)methyl)-2-((2-fluoro-4-iodophenyl)amino)benzamide]: the values for the IC50 in data set [1] and in data set [3] were 2.13 nM and less than 20 nM, respectively.

For the compound `C=CCNC(=O)c1cc(Cc2ccnc(NS(=O)(=O)NC)c2F)c(F)c(F)c1Nc1ccc(I)cc1F` [Compound 4-1, N-allyl-3,4-difluoro-5-((3-fluoro-2-((N-methylaminosulfonyl)amino)pyridin-4-yl)methyl)-2-((2-fluoro-4-iodophenyl)amino)benzamide], the values for the IC50 in data set [1], in data set [2] and in data set [3] were 1.16 nM, 0.89 nM and less than 20 nM, respectively. Moreover, the bioavailability in data set [5] (both sexes, rat, plasma, single dose, intravenous and oral gavage, read-out: absolute bioavailability (F%)) is greater than 65%. In data set [5] (result in words), the “absorption and clearance rates” value was “greater”. Also, the “diets, weights and activities of the animals during the drug administration” value in data set [4] is on record as “normal”. The Tumor inhibition rate entry in data set [4] is reported as “+++ (tumor inhibition rate > 90%)”; in data set [6] (SW480 subcutaneous xenograft, BALB/c nude mice) it was “++++ (tumor inhibition rate > 100%)”. The “inhibitory effects on the growth of subcutaneously transplanted tumors of pancreatic cancer MIA PaCa-2 cells in the nude mice” value in data set [4] is on record as “significant inhibitory effects”. Further, the “inhibitory effect on the growth of subcutaneously transplanted tumors of colorectal cancer SW480 cells in the nude mice” value in data set [6] (result in words) is “significant inhibitory effect”.

`[2H]C([2H])(C=C)NC(=O)c1cc(Cc2ccnc(NS(=O)(=O)NC)c2F)c(F)c(F)c1Nc1ccc(I)cc1F` [Compound 4-7, N-(allyl-1,1-d2) -3,4-difluoro-5-((3-fluoro-2-((N-methylaminosulfonyl)amino)pyridin-4-yl)methyl)-2-((2-fluoro-4-iodophenyl)amino)benzamide] yielded a concentration for half-maximal inhibition (IC50) in data set [1] of 1.09 nM.
